Source: patent US20030118627A1 (DABUR RESEARCH FOUNDATION, priority 2001, published 2003)

Columns and labels:
Type in all cases: cell-based
KB = experiment: MTT cytotoxicity assay, KB oral; details: Homo sapiens, 24 h, read-out: ED50 values of cytotoxicity
Experimental: (§1) Briefly, a […] MTT cytotoxicity assay was performed, which is based on the principle of uptake of MTT (3-(4,5-dimethylthiazol-2-yl)-2,5-diphenyl tetrazolium bromide), a tetrazolium salt, by the metabolically active cells where it is metabolized by active mitochondria into a blue colored formazan product that is read spectrophoto-metrically. MTT was dissolved in phosphate buffered saline with a pH of 7.4 to obtain an MTT concentration of 5 mg/ml; the resulting mixture was filtered through a 0.22 micron filter to sterilize and remove a small amount of insoluble residue. For each type of tumor cell, 20,000 to 50,000 cells were seeded in a 96-well culture plate and incubated with the combination in a CO2 incubator for 24 hours. […] The assay was terminated after 24 hours by adding 100 ug (20 ul) of MTT to each well, then incubating for additional one hour, and finally adding 50 ul of 10% SDS-0.01N HCl to each well to lyse the cells and dissolve formazan. After incubating for one hour, the plate was read spectrophotometrically at 540 nm and the percentage cytotoxicity calculated.

DU145 = experiment: MTT cytotoxicity assay, DU145 prostate; details: Homo sapiens
Experimental: as §1

MCF7 = experiment: MTT cytotoxicity assay, MCF7 breast; details: Homo sapiens
Experimental: as §1

PTC = experiment: MTT cytotoxicity assay, PTC colon; details: Homo sapiens
Experimental: as §1

INT 407 = experiment: MTT cytotoxicity assay, INT 407 intestine; details: Homo sapiens, 24 h, read-out: ED50 values of cytotoxicity
Experimental: as §1

PA 1 = experiment: MTT cytotoxicity assay, PA 1 ovary; details: Homo sapiens
Experimental: as §1

Hep2 = experiment: MTT cytotoxicity assay, Hep2 larynx; details: Homo sapiens, HEp-2, 24 h, read-out: ED50 values of cytotoxicity
Experimental: as §1

U87MG = experiment: MTT cytotoxicity assay, U87MG glioblastoma; details: Homo sapiens, U-87 MG, 24 h, read-out: ED50 values of cytotoxicity
Experimental: as §1

MOLT 4 = experiment: MTT cytotoxicity assay, MOLT 4 leukemia; details: Homo sapiens
Experimental: as §1

Miapaca2 = experiment: MTT cytotoxicity assay, Miapaca2 pancreas; details: Homo sapiens
Experimental: as §1

L132 = experiment: MTT cytotoxicity assay, L132 lung; details: Homo sapiens
Experimental: as §1

293 = experiment: MTT cytotoxicity assay, 293 kidney; details: Homo sapiens, HEK293, 24 h, read-out: ED50 values of cytotoxicity
Experimental: as §1

[1] = 1.0 mM, read-out: Percent cytotoxicity
[2] = 2.5 mM, read-out: Percent cytotoxicity
[3] = 4 mM, read-out: Percent cytotoxicity
[4] = 5 mM, read-out: Percent cytotoxicity
[5] = 10 mM, read-out: Percent cytotoxicity
[6] = 24 h, read-out: ED50 values of cytotoxicity

CCCCOC(=O)C1CCC(=O)N1C(OC(C)=O)C(C)=O (centres unmarked) [MGC-5, N-(1-acetoxy-2-ketopropyl)-butylpyroglutamate]
IC50 (KB): 2000 ± 700 µM
cytotoxicity at 1000 µM (DU145; DU-145, 1.0 mM, read-out: Percent cytotoxicity): 27.9 ± 0.4%
cytotoxicity at 2500 µM (DU145; DU-145, 2.5 mM, read-out: Percent cytotoxicity): 58.4 ± 5.9%
cytotoxicity at 4000 µM (DU145; DU-145, 4 mM, read-out: Percent cytotoxicity): 59 ± 4.3%
cytotoxicity at 5000 µM (DU145; DU-145, 5 mM, read-out: Percent cytotoxicity): 68.3 ± 4.6%
cytotoxicity at 10000 µM (DU145; DU-145, 10 mM, read-out: Percent cytotoxicity): 80 ± 7%
IC50 (DU145; DU-145, 24 h, read-out: ED50 values of cytotoxicity): 1900 ± 700 µM
IC50 (MCF7; MCF7, 24 h, MCF 7 Breast, read-out: ED50 values of cytotoxicity): 5000 ± 2100 µM
cytotoxicity at 1000 µM (MCF7; MCF7 breast, 1.0 mM, read-out: Percent cytotoxicity): 0%
cytotoxicity at 2500 µM (MCF7; MCF7 breast, 2.5 mM, read-out: Percent cytotoxicity): 0%
cytotoxicity at 4000 µM (MCF7; MCF7 breast, 4 mM, read-out: Percent cytotoxicity): 34.9 ± 3.9%
cytotoxicity at 5000 µM (MCF7; MCF7 breast, 5 mM, read-out: Percent cytotoxicity): 51.9 ± 3.8%
cytotoxicity at 10000 µM (MCF7; MCF7 breast, 10 mM, read-out: Percent cytotoxicity): 58.7 ± 5%
cytotoxicity at 1000 µM (PTC; [1]): 2.9 ± 0.3%
cytotoxicity at 2500 µM (PTC; [2]): 37.9 ± 3.9%
cytotoxicity at 4000 µM (PTC; [3]): 53.9 ± 5.4%
cytotoxicity at 5000 µM (PTC; [4]): 85.9 ± 8.9%
cytotoxicity at 10000 µM (PTC; [5]): 89.2 ± 7.4%
IC50 (PTC; [6]): 3800 ± 900 µM
IC50 (INT 407): 2600 ± 1100 µM
IC50 (PA 1; 24 h, PA 1 Ovarian, read-out: ED50 values of cytotoxicity): 1600 ± 100 µM
cytotoxicity at 1000 µM (PA 1; PA 1 Ovary, 1.0 mM, read-out: Percent cytotoxicity): 31.8 ± 3.1%
cytotoxicity at 2500 µM (PA 1; PA 1 Ovary, 2.5 mM, read-out: Percent cytotoxicity): 58.8 ± 5.3%
cytotoxicity at 4000 µM (PA 1; PA 1 Ovary, 4 mM, read-out: Percent cytotoxicity): 83.9 ± 7.8%
cytotoxicity at 5000 µM (PA 1; PA 1 Ovary, 5 mM, read-out: Percent cytotoxicity): 85.9 ± 6.2%
cytotoxicity at 10000 µM (PA 1; PA 1 Ovary, 10 mM, read-out: Percent cytotoxicity): 86.9 ± 8.4%
IC50 (Hep2): 1900 µM
IC50 (U87MG): 3400 ± 1100 µM
IC50 (MOLT 4; 24 h, Molt 4 Leukemia, read-out: ED50 values of cytotoxicity): 1500 ± 100 µM
cytotoxicity at 1000 µM (MOLT 4; MOLT 4 Leukemia, 1.0 mM, read-out: Percent cytotoxicity): 25.9 ± 2.9%
cytotoxicity at 2500 µM (MOLT 4; MOLT 4 Leukemia, 2.5 mM, read-out: Percent cytotoxicity): 61 ± 4.8%
cytotoxicity at 4000 µM (MOLT 4; MOLT 4 Leukemia, 4 mM, read-out: Percent cytotoxicity): 76 ± 7.1%
cytotoxicity at 5000 µM (MOLT 4; MOLT 4 Leukemia, 5 mM, read-out: Percent cytotoxicity): 82.9 ± 6.9%
cytotoxicity at 10000 µM (MOLT 4; MOLT 4 Leukemia, 10 mM, read-out: Percent cytotoxicity): 87.9 ± 6.9%
cytotoxicity at 1000 µM (Miapaca2; MIA PaCa-2, 1.0 mM, read-out: Percent cytotoxicity): 0%
cytotoxicity at 2500 µM (Miapaca2; MIA PaCa-2, 2.5 mM, read-out: Percent cytotoxicity): 24.8 ± 2.6%
cytotoxicity at 4000 µM (Miapaca2; MIA PaCa-2, 4 mM, read-out: Percent cytotoxicity): 43.8 ± 3.9%
cytotoxicity at 5000 µM (Miapaca2; MIA PaCa-2, 5 mM, read-out: Percent cytotoxicity): 54.9 ± 4.2%
cytotoxicity at 10000 µM (Miapaca2; MIA PaCa-2, 10 mM, read-out: Percent cytotoxicity): 67.9 ± 4%
IC50 (Miapaca2; MIA PaCa-2, 24 h, read-out: ED50 values of cytotoxicity): 4300 ± 1600 µM
cytotoxicity at 1000 µM (L132; [1]): 2.9 ± 0.1%
cytotoxicity at 2500 µM (L132; [2]): 36.9 ± 4.9%
cytotoxicity at 4000 µM (L132; [3]): 57.8 ± 4%
cytotoxicity at 5000 µM (L132; [4]): 59 ± 6%
cytotoxicity at 10000 µM (L132; [5]): 76.3 ± 5.4%
IC50 (L132; [6]): 3600 ± 1100 µM
IC50 293: 1900 ± 700 µM
